Measured values taken from patent US5891717A, “Methods and compositions for inhibiting hexokinase” (priority 1996, dated 1999).

Legend:
[1] = target: T1, native hexokinase I, overexpressed (Rattus norvegicus, UniProt P05708); conditions: typically seen (Becker et al., 1994; 1996); cited from earlier work
T1 sequence (P05708 1-918): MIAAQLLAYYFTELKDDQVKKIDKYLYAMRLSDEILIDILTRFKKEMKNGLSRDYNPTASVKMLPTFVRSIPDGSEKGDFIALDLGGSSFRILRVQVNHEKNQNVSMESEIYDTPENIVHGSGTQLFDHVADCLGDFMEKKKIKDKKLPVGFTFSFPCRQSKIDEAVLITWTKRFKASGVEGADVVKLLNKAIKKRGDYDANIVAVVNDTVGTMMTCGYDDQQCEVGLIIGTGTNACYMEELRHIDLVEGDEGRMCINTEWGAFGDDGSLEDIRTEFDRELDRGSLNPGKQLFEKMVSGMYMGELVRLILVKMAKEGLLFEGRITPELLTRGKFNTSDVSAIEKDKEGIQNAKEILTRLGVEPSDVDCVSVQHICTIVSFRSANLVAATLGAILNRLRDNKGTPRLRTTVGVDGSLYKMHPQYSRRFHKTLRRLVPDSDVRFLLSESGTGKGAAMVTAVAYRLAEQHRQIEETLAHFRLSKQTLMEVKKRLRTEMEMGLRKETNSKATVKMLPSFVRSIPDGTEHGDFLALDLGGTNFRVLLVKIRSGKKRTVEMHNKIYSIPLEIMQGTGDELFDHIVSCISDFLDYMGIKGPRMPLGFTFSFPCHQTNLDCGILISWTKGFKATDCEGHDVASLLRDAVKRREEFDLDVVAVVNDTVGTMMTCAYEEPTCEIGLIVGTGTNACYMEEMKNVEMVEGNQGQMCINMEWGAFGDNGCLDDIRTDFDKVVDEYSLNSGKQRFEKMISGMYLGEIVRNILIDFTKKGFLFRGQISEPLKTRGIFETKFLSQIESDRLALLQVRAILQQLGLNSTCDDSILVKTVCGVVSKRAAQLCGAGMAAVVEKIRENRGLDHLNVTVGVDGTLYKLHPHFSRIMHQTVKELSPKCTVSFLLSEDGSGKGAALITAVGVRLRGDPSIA

[2] = target: T2, HK-isletGK chimera: N-terminal 455 amino acids of rat hexokinase I fused to rat islet glucokinase, SEQ ID NO:12 (DNA SEQ ID NO:11) (Rattus norvegicus, UniProt P17712); assay: Glucose phosphorylating activity in extracts of transiently transfected 293 cells, with and without G6P; assay type: biochemical; conditions: 10 mM G6P, 20 mM glucose, 293 cell extracts
T2 construct: expressed in transfected cells; host or cells: human embryonic kidney 293 cells, crude extract
T2 sequence (P17712 with tags, fused parts or gaps): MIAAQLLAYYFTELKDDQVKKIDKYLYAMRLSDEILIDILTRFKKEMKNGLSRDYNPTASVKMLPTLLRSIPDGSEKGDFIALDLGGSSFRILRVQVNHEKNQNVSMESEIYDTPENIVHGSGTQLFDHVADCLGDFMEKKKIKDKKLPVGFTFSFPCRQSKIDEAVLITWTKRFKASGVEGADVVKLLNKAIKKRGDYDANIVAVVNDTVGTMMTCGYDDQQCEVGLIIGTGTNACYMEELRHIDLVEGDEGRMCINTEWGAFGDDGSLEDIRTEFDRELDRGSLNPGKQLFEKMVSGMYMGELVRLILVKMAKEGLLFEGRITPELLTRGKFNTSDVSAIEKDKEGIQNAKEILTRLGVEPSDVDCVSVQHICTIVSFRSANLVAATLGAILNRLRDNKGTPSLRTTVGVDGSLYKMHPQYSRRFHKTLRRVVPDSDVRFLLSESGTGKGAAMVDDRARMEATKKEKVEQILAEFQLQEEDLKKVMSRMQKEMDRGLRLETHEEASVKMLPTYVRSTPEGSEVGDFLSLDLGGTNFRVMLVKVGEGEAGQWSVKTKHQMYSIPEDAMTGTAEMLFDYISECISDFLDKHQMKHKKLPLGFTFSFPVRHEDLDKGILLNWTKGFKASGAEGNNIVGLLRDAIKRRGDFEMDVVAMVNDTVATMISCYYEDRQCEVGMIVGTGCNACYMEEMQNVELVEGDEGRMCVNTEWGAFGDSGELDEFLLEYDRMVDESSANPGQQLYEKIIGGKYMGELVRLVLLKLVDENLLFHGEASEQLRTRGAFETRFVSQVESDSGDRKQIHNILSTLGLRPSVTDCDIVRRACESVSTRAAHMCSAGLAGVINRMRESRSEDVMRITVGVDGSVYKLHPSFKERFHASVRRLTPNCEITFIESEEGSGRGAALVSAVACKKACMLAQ
Excerpt: (§1) For transient transfection studies, cDNAs encoding chimeric hexokinase/glucokinase proteins consisting of the N-terminal domain of hexokinase I (amino acids 1-455) linked in frame to either the full length liver isoform of glucokinase (HK-liverGK, SEQ ID NO:8) or the islet isoform of glucokinase (HK-isletGK, SEQ ID NO:11) were cloned into pAC.CMVpLpA.
(§2) Plasmids containing DNA encoding either intact islet glucokinase, hexokinase I or one of the two hexokinase/glucokinase chimeras were introduced into the human embryonic kidney cell line 293, using Ca2 PO4 co-precipitation. After incubation with the plasmid DNA, cells were cultured for an additional 48 hours. Cells were harvested and crude extracts prepared for assay of glucose phosphorylating activity, using a radioisotopic assay that monitors conversion of U-^14 C glucose to U^14 C glucose-6-phosphate.
(§3) Assays were performed at 3 and 20 mM glucose. At the lower glucose concentration, hexokinase activity is maximal while glucokinase activity is very low. […] The assay was also performed in the presence and absence of 10 mM unlabeled glucose-6-phosphate (G6P).

[3] = target: T3, HK-liverGK chimera: N-terminal 455 amino acids of rat hexokinase I fused to rat liver glucokinase, SEQ ID NO:9 (DNA SEQ ID NO:8) (Rattus norvegicus, UniProt P17712); assay: as above; assay type: biochemical; conditions: 10 mM G6P, 20 mM glucose, 293 cell extracts
T3 construct: expressed in transfected cells; host or cells: human embryonic kidney 293 cells, crude extract
T3 sequence (P17712 with tags, fused parts or gaps isoform P17712-3): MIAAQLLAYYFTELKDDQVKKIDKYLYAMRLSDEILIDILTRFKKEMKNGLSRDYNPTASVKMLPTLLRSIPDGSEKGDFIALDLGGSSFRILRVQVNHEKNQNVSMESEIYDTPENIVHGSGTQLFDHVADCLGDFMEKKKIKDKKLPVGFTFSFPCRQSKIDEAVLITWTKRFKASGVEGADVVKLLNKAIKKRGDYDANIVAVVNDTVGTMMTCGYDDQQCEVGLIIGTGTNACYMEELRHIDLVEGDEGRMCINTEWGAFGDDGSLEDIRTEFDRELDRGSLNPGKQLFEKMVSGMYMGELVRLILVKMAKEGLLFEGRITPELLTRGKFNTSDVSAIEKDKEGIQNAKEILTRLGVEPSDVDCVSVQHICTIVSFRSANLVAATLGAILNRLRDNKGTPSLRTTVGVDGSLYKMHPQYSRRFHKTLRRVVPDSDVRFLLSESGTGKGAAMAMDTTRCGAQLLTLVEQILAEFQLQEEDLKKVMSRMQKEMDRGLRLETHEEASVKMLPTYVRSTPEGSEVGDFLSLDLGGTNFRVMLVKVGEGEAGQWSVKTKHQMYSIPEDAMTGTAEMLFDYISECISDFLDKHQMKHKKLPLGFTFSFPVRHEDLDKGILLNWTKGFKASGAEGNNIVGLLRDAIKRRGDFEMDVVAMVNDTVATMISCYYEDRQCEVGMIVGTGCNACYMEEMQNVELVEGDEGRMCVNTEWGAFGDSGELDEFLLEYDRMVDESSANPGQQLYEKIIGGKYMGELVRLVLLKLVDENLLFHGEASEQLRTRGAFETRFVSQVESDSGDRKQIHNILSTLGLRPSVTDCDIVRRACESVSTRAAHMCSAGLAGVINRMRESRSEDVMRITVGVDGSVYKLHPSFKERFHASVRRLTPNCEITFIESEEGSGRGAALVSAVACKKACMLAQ
Excerpt: as §1, §2, §3

[4] = target: low Km hexokinases I, II and III (HKI-III); conditions: cited from earlier work
[5] = target: glucokinase (GK, hexokinase IV); conditions: cited from earlier work
[6] = target: T4, native (wild type) islet glucokinase, overexpressed (Rattus norvegicus, UniProt P17712); assay: Glucose phosphorylating activity in extracts of transiently transfected 293 cells, with and without G6P; assay type: biochemical; conditions: 10 mM G6P, 293 cell extracts
T4 construct: Plasmids containing DNA encoding either intact islet glucokinase, hexokinase I; expressed in transfected cells; host or cells: human embryonic kidney 293 cells, crude extract
T4 sequence (P17712 1-465): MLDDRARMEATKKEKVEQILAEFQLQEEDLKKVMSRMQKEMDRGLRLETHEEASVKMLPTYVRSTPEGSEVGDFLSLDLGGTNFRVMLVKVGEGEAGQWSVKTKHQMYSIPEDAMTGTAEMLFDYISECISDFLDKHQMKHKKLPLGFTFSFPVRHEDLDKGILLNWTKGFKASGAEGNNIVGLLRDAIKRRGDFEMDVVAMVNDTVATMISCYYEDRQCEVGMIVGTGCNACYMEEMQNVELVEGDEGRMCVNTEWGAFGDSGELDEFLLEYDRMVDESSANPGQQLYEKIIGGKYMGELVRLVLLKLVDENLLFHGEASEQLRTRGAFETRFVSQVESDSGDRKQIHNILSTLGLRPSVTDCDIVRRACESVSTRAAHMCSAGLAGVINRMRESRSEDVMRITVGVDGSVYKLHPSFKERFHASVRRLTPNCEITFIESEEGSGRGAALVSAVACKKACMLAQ
Procedure: as §2, with “glucose-6-phosphate. The extract buffer and assay procedure have previously been described in detail (Kuwajima, et al., 1986; Becker, et al., 1994; each incorporated herein by reference).” for “glucose-6-phosphate.”
Assays were performed at 3 and 20 mM glucose. At the lower glucose concentration, hexokinase activity is maximal while glucokinase activity is very low. At the higher concentration, glucokinase activity is increased to near maximal. The assay was also performed in the presence and absence of 10 mM unlabeled glucose-6-phosphate (G6P). In the presence of G6P, low Km hexokinases are inhibited, but glucokinase is not.

[7] = running text (Wilson, 1985), read-out: Km for glucose

inhibition of glucose phosphorylating activity by G6P [2] | inhibition of glucose phosphorylating activity by G6P [3] | effect of glucose-6-phosphate on glucose phosphorylating activity [6] | Structure (SMILES) | inhibition of glucose phosphorylating activity by G6P [1] [%] | Ki ([4]; Table 1, HKI-III, read-out: Ki G-6-P) [mM] | Ki ([5]; Table 1, GK, read-out: Ki G-6-P) [mM] | glucose-6-phosphate concentration required for appreciable inhibition [5] [mM] | Km [4, 7] [mM] | Km [5, 7] [mM]
approximately 40% | approximately 20% | no significant effect | O=P(O)(O)OC[C@H]1OC(O)[C@H](O)[C@@H](O)[C@@H]1O (stereo partly drawn) [glucose-6-phosphate] | 90 | 0.2 to 0.9 | 60 | > 10 | – | –
– | – | – | OC[C@H]1OC(O)[C@H](O)[C@@H](O)[C@@H]1O (stereo partly drawn) [glucose] | – | – | – | – | 0.01 to 0.05 | 6 to 8
